Earlier results as cited in US5922313A, “Antibacterial composition” (Bio-Safe Enterprises, Inc., priority 1998, dated 1999).

Columns and labels:
[1] = test system: hepatitis B
[2] = test system: HIV

For nonylphenol thoxylate, the virus killing [1] is given as “effective in killing hepatitis B and HIV viruses” and the virus killing [2] is given as “effective in killing hepatitis B and HIV viruses”.
